Assay results reported in patent US9012412B2, “Dual SGLT1/SGLT2 inhibitors” (Janssen Pharmaceutica NV, priority 2013, dated 2015).
pIC50: −log10 of the molar value.

What was measured:
human SGLT1 = molecular target: T1, human SGLT1 (Homo sapiens, UniProt P13866); test: Sodium-dependent 14C-methyl-α-D-glucopyranoside uptake in CHO-K1 cells stably expressing human SGLT1; type: cell-based; details: for inhibition at 3 µM: compound at 3 μM; for pIC50: 14C-methyl-α-D-glucopyranoside uptake; for inhibition at 0.1 µM: compound at 0.1 μM
T1 construct: expressed in transfected cells
T1 sequence (P13866 1-664): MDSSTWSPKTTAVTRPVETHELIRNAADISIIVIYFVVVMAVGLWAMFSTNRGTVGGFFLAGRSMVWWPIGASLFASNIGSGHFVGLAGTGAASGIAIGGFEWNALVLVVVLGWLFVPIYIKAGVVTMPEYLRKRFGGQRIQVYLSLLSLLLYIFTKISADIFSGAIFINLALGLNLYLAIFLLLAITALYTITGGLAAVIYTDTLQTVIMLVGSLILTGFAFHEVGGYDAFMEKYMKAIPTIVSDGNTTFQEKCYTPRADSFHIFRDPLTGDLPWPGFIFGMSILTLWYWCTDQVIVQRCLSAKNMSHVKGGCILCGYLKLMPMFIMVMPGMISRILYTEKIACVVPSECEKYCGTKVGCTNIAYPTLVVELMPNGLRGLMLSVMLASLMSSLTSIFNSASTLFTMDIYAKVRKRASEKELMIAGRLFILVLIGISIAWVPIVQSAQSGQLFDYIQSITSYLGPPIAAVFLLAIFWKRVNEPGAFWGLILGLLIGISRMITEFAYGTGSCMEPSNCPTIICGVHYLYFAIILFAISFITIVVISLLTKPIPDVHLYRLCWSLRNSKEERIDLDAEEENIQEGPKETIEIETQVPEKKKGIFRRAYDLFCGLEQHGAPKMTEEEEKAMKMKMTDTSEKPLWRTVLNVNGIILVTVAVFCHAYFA
Method: (§1) SGLT1 and SGLT2 were cloned in form of cDNA from human small intestine (Genbank M24847), and from human kidney (Genbank M95549), respectively. Subsequently, each full cDNA was subcloned into pcDNA with each construct's integrity verified through follow-on sequencing. To generate CHO-K1 cells that stably express human SGLT1 or human SGLT2 CHO-K1 cells were transfected using DMRIE-C reagent (Life Technologies, Gaithersburg, Md.). Transfected cells were then selected in the presence of 500 μg/ml of the antibiotic G418 (Gibco-BRL, Grand Island, N.Y.). Individual clones were then characterized using the following cell-based assay for sodium-dependent glucose transport.
(§2) First, cell lines stably expressing human SGLT1 or SGLT2 were seeded at a density of 65,000 cells per well per 200 μl cell culture medium with 10 mM of NaButyrate (Aldrich Catalog No. 30341-0) in a 96-well flat bottom plate (COSTAR, Catalog No. 3903). For human SGLT1 or SGLT2 expressing CHO-K1 cells the culture medium comprised Ham's F-12 (Invitrogen Catalog No. 31765), Fetal Bovine Serum (Invitrogen Catalog No. 16000), G418 (Geneticin, Cellgro Catalog No. 30234-CI), Phlorizidin (Sigma Catalog No. P3449), DPBS (Cellgro Catalog No. 21030-CV), ^14C-methyl-α-D-glucopyranoside (Amersham Catalog No. CFB 76), and Methyl-α-D-glucopyranoside (Sigma Catalog No. M-9376).
(§3) The cells were allowed to incubate for 24 hours. Subsequently, the medium was aspirated from the plates and the cells were washed one time with 150 μl assay buffer and incubate 15 min with another 150 μl assay buffer which comprised 50 mM HEPES pH 7.4, 20 mM Tris Base, 5 mM KCl, 1 mM MgCl2, 1 mM CaCl2, and 137 mM NaCl. After removing the wash buffer, 40 μl assay buffer and 10 μl compound solution was added to each well, which was again allowed to incubate for 10 min.
(§4) Following the 10 min incubation, 10 μl of serial diluted Methyl-α-D-glucopyranoside (Sigma Catalog No. M-9376) containing 0.07 μCi ^14C-methyl-α-D-glucopyranoside (Amersham Catalog No. CFB 76) was added to the appropriate well and allowed to incubate for another 2 hours. ^14C-methyl-α-D-glucopyranoside (Sigma Catalog No. M-9376, St. Louis, Mo.) is a non-metabolizable glucose analog specific for sodium-dependent glucose transporters as previously described by H. Peng and J. E. Lever in “Post-transcriptional regulation of Na+/glucose cotransporter (SGLT1) gene expression in LLC-PK1 cells,” J. Biol. Chem. 270, 20536-42 (1995).
(§5) Next, the plates were twice washed with 150 μl of ice-cold DPBS (Cellgro Catalog No. 21030) that was then completely removed from the plates before adding 50 μl of MicroScint™-20 (Packard Catalog No. 6013621) to each well for a 20 min or longer incubation time.
(§6) Sodium-dependent ^14C-methyl-α-D-glucopyranoside uptake was quantified by measuring radioactivity. Plates were counted in a TopCount (Packard, Meriden, Conn.). Results are reported as the %-inhibition or IC50 value from a representative experiment. Variability for the functional assay was typically within 20%.

human SGLT2 = molecular target: T2, human SGLT2 (Homo sapiens, UniProt P31639); test: Sodium-dependent 14C-methyl-α-D-glucopyranoside uptake in CHO-K1 cells stably expressing human SGLT2; type: cell-based; details: for pIC50: 14C-methyl-α-D-glucopyranoside uptake; for inhibition at 0.3 µM: compound at 0.3 μM; for inhibition at 0.1 µM: compound at 0.1 μM
T2 construct: expressed in transfected cells
T2 sequence (P31639 1-672): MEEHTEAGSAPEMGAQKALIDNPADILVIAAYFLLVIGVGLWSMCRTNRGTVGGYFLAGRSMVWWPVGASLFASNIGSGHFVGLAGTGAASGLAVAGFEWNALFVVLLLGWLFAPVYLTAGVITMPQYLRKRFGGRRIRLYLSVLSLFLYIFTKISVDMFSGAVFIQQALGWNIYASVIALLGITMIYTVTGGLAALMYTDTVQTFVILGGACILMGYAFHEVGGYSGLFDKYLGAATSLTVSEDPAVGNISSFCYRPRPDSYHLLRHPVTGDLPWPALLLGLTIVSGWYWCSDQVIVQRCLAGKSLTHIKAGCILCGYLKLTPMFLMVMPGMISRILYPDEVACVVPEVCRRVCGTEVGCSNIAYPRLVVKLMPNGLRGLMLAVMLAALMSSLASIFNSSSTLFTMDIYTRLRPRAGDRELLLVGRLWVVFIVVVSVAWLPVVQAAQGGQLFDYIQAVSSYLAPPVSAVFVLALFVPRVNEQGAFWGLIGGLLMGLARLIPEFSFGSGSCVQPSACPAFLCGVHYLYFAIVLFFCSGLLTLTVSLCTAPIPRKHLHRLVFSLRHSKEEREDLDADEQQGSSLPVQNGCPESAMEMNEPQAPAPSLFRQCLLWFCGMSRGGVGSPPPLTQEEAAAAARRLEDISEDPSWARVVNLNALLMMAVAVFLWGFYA
Method: as §1, §2, §3, §4, §5, §6

| SMILES | pIC50 (human SGLT1) | pIC50 (human SGLT2) | inhibition at 0.1 µM (human SGLT1) [%] | inhibition at 0.1 µM (human SGLT2) [%] | also measured |
| --- | --- | --- | --- | --- | --- |
| COc1cc(O)c([C@@H]2O[C@H](CO)C[C@H](O)[C@H]2O)cc1C1(c2cc3ccccc3s2)CC1 [Cpd 9, (2S,3R,4S,6S)-2-(5-(1-(benzo[b]thiophen-2-yl)cyclopropyl)-2-hydroxy-4-methoxyphenyl)-6-(hydroxymethyl)tetrahydro-2H-pyran-3,4-diol] |  |  |  |  | inhibition at 3 µM (human SGLT1): 49%; inhibition at 3 µM (human SGLT2; compound at 3 μM): 57% |
| OC[C@@H]1C[C@H](O)[C@@H](O)[C@H](c2cc(Cc3cc4ccccc4s3)c(C3CC3)cc2O)O1 [Cpd 12, (2S,3R,4S,6S)-2-(5-(benzo[b]thiophen-2-ylmethyl)-4-cyclopropyl-2-hydroxyphenyl)-6-(hydroxymethyl)tetrahydro-2H-pyran-3,4-diol] | 7.00 | 6.17 |  |  |  |
| O=C(c1cc2ccccc2s1)c1cc([C@@H]2O[C@H](CO)C[C@H](O)[C@H]2O)c(O)cc1O [Cpd 18, benzo[b]thiophen-2-yl(5-((2S,3R,4S,6S)-3,4-dihydroxy-6-(hydroxymethyl)tetrahydro-2H-pyran-2-yl)-2,4-dihydroxyphenyl)methanone] |  |  |  |  | inhibition at 3 µM (human SGLT1): 19%; inhibition at 0.3 µM (human SGLT2): 13% |
| Cc1cc(Br)c([C@@H]2O[C@H](CO)C[C@H](O)[C@H]2O)cc1Cc1cc2ccccc2s1 [Cpd 25, (2S,3R,4S,6S)-2-(5-(benzo[b]thiophen-2-ylmethyl)-2-bromo-4-methylphenyl)-6-(hydroxymethyl)tetrahydro-2H-pyran-3,4-diol] |  |  | 26 | 47 |  |
| N#Cc1cc(O)c([C@@H]2O[C@H](CO)C[C@H](O)[C@H]2O)cc1Cc1cc2ccccc2s1 [Cpd 13, 2-(benzo[b]thiophen-2-ylmethyl)-4-((2S,3R,4S,6S)-3,4-dihydroxy-6-(hydroxymethyl)tetrahydro-2H-pyran-2-yl)-5-hydroxybenzonitrile] |  |  |  |  | inhibition at 3 µM (human SGLT1): 57%; inhibition at 0.3 µM (human SGLT2): 73% |
| Cc1cc(O)c([C@@H]2O[C@H](CO)C[C@H](O)[C@H]2O)cc1Cc1cc2cc(Cl)ccc2s1 [Cpd 20, (2S,3R,4S,6S)-2-(5-((5-chlorobenzo[b]thiophen-2-yl)methyl)-2-hydroxy-4-methylphenyl)-6-(hydroxymethyl)tetrahydro-2H-pyran-3,4-diol] |  |  | 20 | 84 |  |
| COc1cc(O)c([C@@H]2O[C@H](CO)C[C@H](O)[C@H]2O)cc1C(C)(C)c1cc2ccccc2s1 [Cpd 14, (2S,3R,4S,6S)-2-(5-(2-(benzo[b]thiophen-2-yl)propan-2-yl)-2-hydroxy-4-methoxyphenyl)-6-(hydroxymethyl)tetrahydro-2H-pyran-3,4-diol] |  |  |  |  | inhibition at 0.3 µM (human SGLT1; compound at 0.3 μM): 46%; inhibition at 0.3 µM (human SGLT2): 54% |
| Cc1cc(O)c([C@@H]2O[C@H](CO)C[C@H](O)[C@H]2O)cc1C(C)(C)c1cc2ccccc2s1 [Cpd 15, (2S,3R,4S,6S)-2-(5-(2-(benzo[b]thiophen-2-yl)propan-2-yl)-2-hydroxy-4-methylphenyl)-6-(hydroxymethyl)tetrahydro-2H-pyran-3,4-diol] |  |  |  |  | inhibition at 3 µM (human SGLT1): 52%; inhibition at 0.3 µM (human SGLT2): 25% |
| Cc1cc(O)c([C@@H]2O[C@H](CO)C[C@H](O)[C@H]2O)cc1Cc1nc2ccccc2s1 [Cpd 29, (2S,3R,4S,6S)-2-(5-(benzo[d]thiazol-2-ylmethyl)-2-hydroxy-4-methylphenyl)-6-(hydroxymethyl)tetrahydro-2H-pyran-3,4-diol] |  |  | 22 | 41 |  |
| C=CCOc1c([C@@H]2O[C@H](CO)C[C@H](O)[C@H]2O)cc(Cc2cc3ccccc3s2)c(C)c1C [Cpd 24, (2S,3R,4S,6S)-2-(2-(allyloxy)-5-(benzo[b]thiophen-2-ylmethyl)-3,4-dimethylphenyl)-6-(hydroxymethyl)tetrahydro-2H-pyran-3,4-diol] |  |  | 31 | 40 |  |
| Cc1cc(-c2cc[nH]n2)c([C@@H]2O[C@H](CO)C[C@H](O)[C@H]2O)cc1Cc1cc2ccccc2s1 [Cpd 27, (2S,3R,4S,6S)-2-(5-(benzo[b]thiophen-2-ylmethyl)-4-methyl-2-(1H-pyrazol-3-yl)phenyl)-6-(hydroxymethyl)tetrahydro-2H-pyran-3,4-diol] | 6.13 | 8.00 |  |  |  |
| Cc1cc(O)c([C@@H]2O[C@H](CO)C[C@H](O)[C@H]2O)cc1Cc1ccc(-c2ccc(F)cc2)s1 [Cpd 31, (2S,3R,4S,6S)-2-(5-((5-(4-fluorophenyl)thiophen-2-yl)methyl)-2-hydroxy-4-methylphenyl)-6-(hydroxymethyl)tetrahydro-2H-pyran-3,4-diol] | 6.57 |  |  | 58 |  |
| COc1c([C@@H]2O[C@H](CO)C[C@H](O)[C@H]2O)cc(Cc2cc3ccccc3s2)c(C)c1C [Cpd 23, (2S,3R,4S,6S)-2-(5-(benzo[b]thiophen-2-ylmethyl)-2-methoxy-3,4-dimethylphenyl)-6-(hydroxymethyl)tetrahydro-2H-pyran-3,4-diol] |  |  | 50 | 70 |  |

Continued, in another order:

| pIC50 (human SGLT1) | pIC50 (human SGLT2) | inhibition at 0.1 µM (human SGLT1) [%] | inhibition at 0.1 µM (human SGLT2) [%] | SMILES | also measured |
| --- | --- | --- | --- | --- | --- |
| 6.81 | 6.94 |  |  | COc1cc(O)c([C@@H]2O[C@H](CO)C[C@H](O)[C@H]2O)cc1Cc1cc2ccccc2s1 [Cpd 2, (2S,3R,4S,6S)-2-(5-(benzo[b]thiophen-2-ylmethyl)-2-hydroxy-4-methoxyphenyl)-6-(hydroxymethyl)tetrahydro-2H-pyran-3,4-diol] |  |
| 6.94 | 7.66 |  |  | OC[C@@H]1C[C@H](O)[C@@H](O)[C@H](c2cc(Cc3cc4ccccc4s3)c(Cl)cc2O)O1 [Cpd 3, (2S,3R,4S,6S)-2-(5-(benzo[b]thiophen-2-ylmethyl)-4-chloro-2-hydroxyphenyl)-6-(hydroxymethyl)tetrahydro-2H-pyran-3,4-diol] |  |
| 6.93 | 7.80 |  |  | Cc1cc(O)c([C@@H]2O[C@H](CO)C[C@H](O)[C@H]2O)cc1Cc1cc2ccccc2s1 [Cpd 1, (2S,3R,4S,6S)-2-(5-(benzo[b]thiophen-2-ylmethyl)-2-hydroxy-4-methylphenyl)-6-(hydroxymethyl)tetrahydro-2H-pyran-3,4-diol] |  |
